# Experimental data taken from patent US6713274B2, “Method for identifying modulators of sulfotransferase activity” (The Regents of the University of California, priority 2002, dated 2004).
# Assays:
# [1] = target: T1, sulfotransferase domain of human NDST-1 (Homo sapiens, UniProt P52848); test: Dot-blot assay for NDST-1 (sulfation of de-N-sulfated heparin with 35S-PAPS); assay type: biochemical; details: FIG. 5A Lineweaver-Burk plot
# T1 construct: A plasmid containing the sulfotransferase domain of human NDST-1 fused to glutathione S-transferase; glutathione S-transferase (cleaved yes); made in house
# T1 sequence (P52848 599-882 limits assumed): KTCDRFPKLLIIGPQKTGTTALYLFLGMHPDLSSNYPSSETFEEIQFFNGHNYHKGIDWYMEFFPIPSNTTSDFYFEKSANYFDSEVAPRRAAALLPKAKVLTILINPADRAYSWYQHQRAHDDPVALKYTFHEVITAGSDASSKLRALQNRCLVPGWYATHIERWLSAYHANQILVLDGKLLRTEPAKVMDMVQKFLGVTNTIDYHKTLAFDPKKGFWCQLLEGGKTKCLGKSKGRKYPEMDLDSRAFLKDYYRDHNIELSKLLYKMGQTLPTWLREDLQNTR
# Description: For the NDST-1 assay, de-N-sulfated heparin (0.02-0.1 mg) and 0.1 μg of enzyme were added to 50 mM HEPES-NaOH (pH 7.0), 0.15 M NaCl, 0.75 mg/mL protamine, 0.4% Triton X-100, 15% glycerol in a total volume of 25 μL in a 96-well plate. Reactions were initiated with 0.15 μM ^35S-labeled PAPS (“^35S-PAPS”)(0.1-0.5 μCi per reaction), incubated at 25° C. for 15 min, and terminated by the addition of 30 μL of MeOH. A 15-μL aliquot was removed from each well and diluted 100-fold, and 15-25 μL were then transferred to the wells of the dot-blot apparatus. A vacuum was applied, and the wells were washed and eluted as described below. Control reactions with heat-killed (100° C., 5 min) enzyme were included to monitor background binding of ^35S-PAPS and ^35S-SO4^2− to the membrane after washing.
# (§1) Hybond-N+ membranes were pre-wetted with H2O and Hybond-P membranes were pre-wetted with MeOH before assembling the dot-blot apparatus. The quenched and diluted reactions were added to the wells, and a vacuum was applied to load products onto the membrane. To elute ^35S-PAPS while retaining ^35S-labeled heparin or GlcNAc-PAA on the membrane, the wells were washed twice with 40 μL of PAPS elution buffer (EB) ((NH4)2SO4 pH 3.0), while maintaining a gentle vacuum. […] The amount of ^35S-labeled product associated with the membrane was then quantified by phosphorimaging.
# GST-3 = target: T2, GST-3 (Homo sapiens, UniProt Q8NCG5); test: Dot-blot assay for GST-3 (sulfation of β-GlcNAc-PAA with 35S-PAPS); assay type: biochemical; details: FIG. 5B Lineweaver-Burk plot
# T2 sequence (Q8NCG5 1-386): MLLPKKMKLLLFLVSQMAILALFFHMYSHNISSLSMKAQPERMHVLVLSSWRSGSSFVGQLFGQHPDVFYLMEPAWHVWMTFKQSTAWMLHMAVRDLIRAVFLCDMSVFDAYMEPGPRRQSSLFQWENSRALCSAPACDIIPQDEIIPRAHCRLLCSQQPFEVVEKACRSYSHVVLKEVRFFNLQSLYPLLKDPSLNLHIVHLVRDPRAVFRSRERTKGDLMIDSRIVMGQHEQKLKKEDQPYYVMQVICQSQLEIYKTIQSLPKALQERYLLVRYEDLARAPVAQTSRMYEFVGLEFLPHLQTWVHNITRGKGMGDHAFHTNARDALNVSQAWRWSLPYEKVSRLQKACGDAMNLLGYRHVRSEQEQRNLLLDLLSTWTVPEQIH
# Description: A typical assay included an appropriate volume of enzyme solution, 0.6-1.0 μg of β-GlcNAc-PAA, 0.1% Triton X-100, 10% glycerol, 4 mM Mg(OAc)2, 10 mM NaF, 1 mM ATP, in 30 mM HEPES-NaOH (pH 6.0), diluted to a total volume of 25 μL in a 96-well plate. Reactions were initiated with 2.0 μM ^35S-PAPS (0.1-0.5 μCi per reaction), incubated at 25° C. for 2 h, and terminated with 30 μL of MeOH. A 15-μL aliquot was removed from each well and diluted 100-fold, and 15-25 μL of the solution were transferred to the wells of the dot-blot apparatus. A vacuum was applied, and the wells were washed and eluted as described below. Control reactions with heat-killed enzyme were included to monitor background binding of ^35S-PAPS and ^35S-SO4^2− to the membrane after washing.
# as §1
smiles,measurement,setting,value
"Nc1ncnc2c1ncn2[C@@H]1O[C@H](COP(=O)(O)O)[C@@H](OP(=O)(O)O)[C@H]1O [3′,5′-ADP]",mode of enzyme inhibition (double reciprocal plots of signal versus PAPS concentration),[1],competitive inhibitor
same,mode of enzyme inhibition (double reciprocal plots of signal versus PAPS concentration),GST-3,competitive inhibitor
